Values of other authors in patent publication US20060116369A1, “Certain compounds, compositions, and methods” (priority 2004, published 2006).

System: A549 cells
Conditions: data provided by National Cancer Institute, Developmental Therapeutic Program

Compound	GI50 [nM]
O=c1[nH]cc(F)c(=O)[nH]1 [5-fluorouracil]	1000
CC(=O)O[C@H]1C(=O)[C@@]2(C)[C@H]([C@H](OC(=O)c3ccccc3)[C@]3(O)C[C@H](OC(=O)[C@H](O)[C@@H](NC(=O)c4ccccc4)c4ccccc4)C(C)=C1C3(C)C)[C@]1(OC(C)=O)CO[C@@H]1C[C@@H]2O [paclitaxel]	4
COc1cccc2c1C(=O)c1c(O)c3c(c(O)c1C2=O)C[C@@](O)(C(=O)CO)C[C@@H]3O[C@H]1C[C@H](N)[C@H](O)[C@H](C)O1 [doxorubicin]	63
NC(=O)NO [hydroxyurea]	500000
